How the values were obtained:
[1] = test system: blood brain barrier; assay: Evans Blue dye extravasation across the blood brain barrier in mice immunized for EAE; type: in vivo; conditions: WT EAE mice, 100 μl 0.01 nM on days 1, 3, 5, 7, 9; dye on day 10
Protocol: In order to determine if activation of adenosine receptors would induce extravazation of Evans Blue dye across the blood brain barrier (BBB), mice were first treated on day one with NECA, a non-selective adenosine receptor agonist (n=2, 100 μl 0.01 nM); and, PBS as a vehicle control (n=2, 100 μl). On day 2 mice were then immunized with CFA-MOG35-55 and pertussis to induce EAE. Then NECA or PBS was administered every other day on day 3, day 5, day 7 and day 9. On day 10, mice were injected intravenously with 200 μl 1% Evans Blue dye ([…] total dye injected). Six hours after administration of Evans Blue, mice were anesthetized with a ketamine/xylazine mix and perfused via the left ventricle with ice cold PBS. Brains were harvested and homogenized in n,n-dimethylformamide (DMF) at 5 μl/mg (v:w). Tissue was incubated for 72 hours at room temperature in DMF to extract the dye. Following extraction, the tissue/solvent mixture was centrifuged at 500×g for 30 minutes and 100 μl of supernatant was read on a BioTex spectrophotometer at 620 nm.

[2] = test system: Bend.3 cells; assay: Albumin uptake assay; type: cell-based, mouse; conditions: BECs, 1 μM, 30 minutes, vs media and vehicle
Protocol: Bend.3 cells grown on collagen coated coverslips were incubated with albumin-alexafluor 594 (50 mg/ml) (Invitrogen) and either media alone, DMSO vehicle, NECA (1 μM), or Lexiscan (1 μM) for 30 minutes. Albumin uptake was visualized (albumin=red) utilizing the Zeiss Axio Imager M1 fluorescent microscope. Total albumin fluorescence was recorded using Zeiss Axio Vision software, and measured utilizing Image-J software.

[3] = test system: ICAM-1; assay: ICAM-1 expression on the choroid plexus after EAE induction; type: in vivo; conditions: wild type mice after EAE induction, vs DMSO
Protocol: Anesthetized mice were perfused with PBS, and brains, spleens, and spinal cords were isolated and snap frozen in Tissue Tek-OCT medium. Five μm sections (brains in a sagittal orientation) were affixed to Supefrost/Plus slides (Fisher), fixed in acetone, and stored at −80° C. For immunostaining, slides were thawed and treated with 0.03% H2O2 in PBS to block endogenous peroxidase, blocked with Casein (Vector) in normal goat serum (Zymed), and then incubated with anti-CD45 (YW62.3), anti-CD4 (RM4-5), or anti-ICAM-1 (3E2). Slides were incubated with biotinylated goat anti-rat Ig (Jackson ImmunoResearch) and streptavidin-HRP (Zymed) and developed with an AEC (Red) substrate kit (Zymed) and a hematoxylin counterstain. […]
As CD73 catalyzes the breakdown of AMP to adenosine and ARs are expressed in the CNS (Tsutsui et al., “A1 Adenosine Receptor Upregulation and Activation Attenuates Neuroinflammation and Demyelination in a Model of Multiple Sclerosis,” J. Neurosci. 24:1521-1529 (2004)); Rosi et al., The Influence of Brain Inflammation Upon Neuronal Adenosine A2B Receptors,” J. Neurochem. 86:220-227 (2003), which are hereby incorporated by reference in their entirety), it was next determined if AR signaling is important during EAE progression. […] Since CD73 is highly expressed on the choroid plexus (FIG. 6C), it was next determined if ARs are also expressed on the choroid plexus. […]

| Compound | BBB permeability to Evans Blue dye [1] | rate of fluorescently-labeled albumin uptake [2] | ICAM-1 up regulation on the choroid plexus [3] |
| --- | --- | --- | --- |
| CCNC(=O)[C@H]1O[C@@H](n2cnc3c(N)ncnc32)[C@H](O)[C@@H]1O [NECA, 5′-N-ethylcarboxamido adenosine] | increase in BBB permeability over PBS control EAE mice | did not affect the rate of fluorescently-labeled albumin uptake |  |
| Nc1nc2c(cnn2CCc2ccccc2)c2nc(-c3ccco3)nn12 [SCH58261, 2-(2-Furanyl)-7-(2-phenylethyl)-7H-pyrazolo[4,3-e][1,2,4]triazolo[1,5-c]pyrimidin-5-amine] |  |  | prevented the up regulation of ICAM-1 |
